Earlier results, collected in article PMC2600787, “Flanking p10 contribution and sequence bias in matrix based epitope prediction: revisiting the assumption of independent binding pockets” (BMC Structural Biology, 2008).

System: HLA-DR1
Design: method as in 2 sources, ref Geluk et al. [32] ||| ref [32] = [32]; PMID 9753297; doi:10.2337/diabetes.47.10.1594; Geluk A van Meijgaarden KE Schloot NC Drijfhout JW Ottenhoff TH Roep BO HLA-DR binding analysis of peptides from islet antigens in IDDM Diabetes 1998 47 1594 1601 9753297 10.2337/diabetes.47.10.1594; pIC50exp: unit not given here
Conditions: according to IC50 binding measurements; ref [32]
Source text: Anchor residues at dominant pockets p1, p4, p6 and p9 are as expected for DR1 [12].
In the case of “SCSKVDVNYAFLHATDLLPA [peptide 9, 20-mer peptide from GAD65]”, the “binding to DR1 (in words)” value is listed as “strong binder”.

Same assay, conditions: experimental binding affinity to HLA-DR1; logarithmic transform of IC50; 20-mer peptides from GAD65 (1 through 100) and ICA69 (101 and above), pruned to remove poor binders; ref Geluk et al. [32]
In the case of “115: 20-mer peptide from ICA69 (VETFRHRAISDTWLTVNRME) [compound 115]”, the pIC50exp is given as 1.10.
For “AIHESFKGYQPYEFTTLKSL [peptide 126, 20-mer peptide from ICA69]”, the pIC50exp is given as 0.10.
For “DPDLYKQMEKFRKVQTQVRL [peptide 119, 20-mer peptide from ICA69]”, the pIC50exp is listed as 0.22.
In the case of “FRKVQTQVRLAKKNFDKLKM [peptide 120, 20-mer peptide from ICA69]”, the pIC50exp is given as 0.00.
For “LQDVMNILLQYVVKSFDRST [peptide 12, 20-mer peptide from GAD65]”, the pIC50exp is given as -0.60.
In the case of “LVSATAGTTVYGAFDPLLAV [peptide 33, 20-mer peptide from GAD65]”, the pIC50exp is listed as 0.05.
In the case of “MASPGSGFWSFGSEDGSGDS [peptide 1, 20-mer peptide from GAD65]”, the pIC50exp is given as -0.70.
For “QCRTEYRGALLWMKDVSQEL [peptide 117, 20-mer peptide from ICA69]”, the pIC50exp is given as 1.10.
In the case of “RKESSSFKTEDGKSILSALD [peptide 132, 20-mer peptide from ICA69]”, the pIC50exp is given as 0.52.
In the case of “SCSKVDVNYAFLHATDLLPA [peptide 9, 20-mer peptide from GAD65]”, the pIC50exp is given as 1.52.
For “SVVNKMQQRYWETKQAFIKA [peptide 103, 20-mer peptide from ICA69]”, the pIC50exp is given as 1.00.
For “YVVKSFDRSTKVIDFHYPNE [peptide 13, 20-mer peptide from GAD65]”, the pIC50exp is listed as -0.77.

Target: HLA-DRB3*0101 (HLA-DR52a) (Homo sapiens, UniProt P01903+P79483)
Conditions: earlier structural and binding studies; crystallography CSP, unpublished; ref not given
Source text: Results from structural and binding studies using the peptide […] in complex with HLA-DRB3*0101 (HLA-DR52a) show a contribution from position p10. 24-[…]-39, from the N-terminus of human […] is a major ligand of DR52a. A natural variant of the epitope widely distributed in the population is 24-[…]-39. The Leu33/Pro33 dimorphism is the basis of the unidirectional alloimmune posttransfusion thrombocytopenia purpura (PTP) and fetal-maternal alloimmune thrombocytopenia (FMAIT), severe blood disorders in some DR52a subjects homozygous in Pro33 [[2 ...
In the case of “AWCSDEALPLGSPRCD [peptide from the N-terminus of human integrin α2βIIIa, a major ligand of DR52a]”, the “binding to DR52a (in words)” value is given as “major ligand”.
For “AWCSDEALPPGS [shorter Pro33 integrin peptide]”, the “binding to DR52a (in words)” value is listed as “does not bind”.
For AWCSDEALPPGSPRCD, the “binding to DR52a (in words)” value is given as “does not bind”.
In the case of “AWCSDEALPPLS [Pro33 integrin peptide with leucine replacing glycine at position 10]”, the “binding to DR52a (in words)” value is listed as “has been demonstrated to bind”.
